Experimental data from patent US5681966A, “Compounds and methods for the treatment of cardiovascular, inflammatory and immune disorders” (Cytomed, Inc., priority 1995, dated 1997).
One block for each compound: values may come before it.

Experiments:
5-lipoxygenase [1] = target: T1, 5-lipoxygenase (Rattus norvegicus, UniProt P12527); test: Inhibition of soluble 5-lipoxygenase in RBL-1 cell extract (cytosol 5-lipoxygenase of rat basophile leukemia cells; RBL); assay type: biochemical; details: for IC50: RBL-1 cell extract; for activity in 5-lipoxygenase assay: qualitative
T1 construct: The supernatant solution (cytosol fraction) containing 5-lipoxygenase was stored; endogenous in cells; host or cells: RBL-1 rat basophilic leukemia cells, 105,000 x g supernatant (cytosol)
T1 sequence (P12527 1-673): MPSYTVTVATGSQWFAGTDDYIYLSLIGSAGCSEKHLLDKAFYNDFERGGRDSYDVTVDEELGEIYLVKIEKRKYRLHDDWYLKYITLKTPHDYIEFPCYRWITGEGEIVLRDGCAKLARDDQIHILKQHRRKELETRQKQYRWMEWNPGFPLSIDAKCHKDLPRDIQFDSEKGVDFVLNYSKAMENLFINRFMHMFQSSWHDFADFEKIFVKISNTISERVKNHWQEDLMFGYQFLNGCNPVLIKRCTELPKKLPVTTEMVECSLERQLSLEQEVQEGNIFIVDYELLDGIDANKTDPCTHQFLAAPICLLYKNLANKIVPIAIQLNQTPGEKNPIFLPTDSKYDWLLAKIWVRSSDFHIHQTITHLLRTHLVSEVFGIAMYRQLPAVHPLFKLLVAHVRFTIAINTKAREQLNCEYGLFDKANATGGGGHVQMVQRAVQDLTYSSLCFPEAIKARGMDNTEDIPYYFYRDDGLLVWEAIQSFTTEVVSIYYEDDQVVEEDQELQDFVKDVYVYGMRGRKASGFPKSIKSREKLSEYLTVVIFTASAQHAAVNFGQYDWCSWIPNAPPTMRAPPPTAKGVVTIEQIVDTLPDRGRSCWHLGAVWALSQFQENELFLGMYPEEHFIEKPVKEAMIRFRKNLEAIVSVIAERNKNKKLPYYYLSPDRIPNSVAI
Protocol: Effect of Compounds on Cytosol 5-Lipoxygenase of Rat Basophile Leukemia Cells
Washed rat RBL cells (4×108) were suspended in 20 ml of […] potassium phosphate buffer at pH 7.4 containing 10% ethylene glycol/1 mM EDTA (Buffer A). The cell suspension was sonicated at 20 KHz for 30 seconds, and the sonicate was centrifuged at 10,000 × g for 10 minutes, followed by further centrifugation at 105,000 × g for 1 hr. The supernatant solution (cytosol fraction) containing 5-lipoxygenase was stored at -70° C. Protein concentration was determined according to the procedure of Bradford (Bradford Dye Reagent) with bovine serum albumin as a standard.
For routine assay of 5-lipoxygenase the mixture contained 50 mM potassium phosphate buffer at pH 7.4, 2 mM CaCl2, 2 mM ATP, […] arachidonic acid (0.1 Ci) and enzyme ([…] of protein) in a final volume of […]. The reaction was carried out at 24° C. for 3 minutes. The mixture was extracted with 0.2 ml of an ice-cold mixture of ethyl ether:methanol: 0.2M citric acid (30:4:1). The extract was subjected to thin-layer chromatography at -10° C. in a solvent system of petroleum ether:ethyl ether:acetic acid (15:85:0.1). The silica gel zones corresponding to authentic arachidonic acid and its metabolites were scraped into scintillation vials for counting. The enzyme activity was expressed in terms of the amount of arachidonic acid oxygenated for 3 minutes.
Table 3 provides data for the inhibition of soluble 5-lipoxygenase in RBL-1 cell extract by racemic compound 202, as well as its enantiomers, compounds […], 234, and 236.

[2] = system: 5-lipoxygenase (ex vivo LTB4); test: Ex vivo whole blood 5-lipoxygenase evaluation (ex vivo LTB4); assay type: in vivo; details: rat, 10 mg/kg po, 180'
Protocol: Ex-vivo Mouse and Rat Whole Blood 5-lipoxygenase Evaluation
CD-1 female mice, weighing 18-25 grams, and CD female rates, weighing 150-230 grams, were obtained from Charles River Labs. Compounds were dissolved in 0.5% DMSO in 0.9% NaCl for administration in mice (0.5 mg/ml) and in an alcohol Vehicle (2% benzyl alcohol, 1% ethanol, 40% PEG 300 10% propylene glycol, 47% of 5% dextrose plus 3.5% pluronic F-68 in DiH2 O) for use in rates (5 mg/ml). […] Heparinized whole blood (0.3 ml) was added into 1.5 ml Eppendorf centrifuge tub containing […] of 2 mM calcium ionophore A23187 (the final concentration of A23187 was […]). The sample was incubated for 30 minutes in a water bath of 37° C., and then centrifuged for 2 minutes. The plasma was diluted (×120) and assayed for LTB4 using EIA.
Table 3 provides data for the ex-vivo mouse and rat whole blood 5-lipoxygenase values on administration of racemic compound 202, as well as its enantiomers, compounds 216, 217, 234, and 236.

platelets = details: active concentration; cited from earlier work
[3] = cited from earlier work
PAF receptor = details: cited from earlier work; for PAF receptor antagonism / inhibition of PAF binding: qualitative
5-lipoxygenase [4] = details: qualitative; cited from earlier work
[5] = system: PAF-induced rat cutaneous vascular permeability; details: 30 mg/kg body weight; orally active; cited from earlier work

IC50 (5-lipoxygenase [1]): 3800 nM
Compound: C[C@H](C#C[C@@H]1CC[C@@H](c2ccc(F)cc2)O1)N(O)C(N)=O

IC50 (5-lipoxygenase [1]): 3510 nM
Compound: C[C@@H](C#C[C@@H]1CC[C@@H](c2ccc(F)cc2)O1)N(O)C(N)=O

IC50 (5-lipoxygenase [1]): 3100 nM
Compound: C[C@H](C#C[C@H]1CC[C@H](c2ccc(F)cc2)O1)N(O)C(N)=O

IC50 (5-lipoxygenase [1]): 2000 nM
Compound: C[C@@H](C#C[C@H]1CC[C@H](c2ccc(F)cc2)O1)N(O)C(N)=O

IC50 (5-lipoxygenase [1]): 618 nM
Compound: NC(=O)N(O)CCCCC1CCC(c2ccc(F)cc2)O1 (stereo not shown)
ex vivo LTB4 % (inhibition), last sub-column [2]: 83%

IC50 (5-lipoxygenase [1]): 1100 nM
Compound: NC(=O)N(O)CCCC[C@@H]1CC[C@@H](c2ccc(F)cc2)O1

IC50 (5-lipoxygenase [1]): 2800 nM | inhibition at 1.6 µM (5-lipoxygenase [1]; dose 1.6 uM, read-out: RBL % inh.): 20%
Compound: CC(C#C[C@@H]1CC[C@@H](c2ccc(F)cc2)O1)N(O)C(N)=O (relative stereo)

activity in 5-lipoxygenase assay (5-lipoxygenase [1]): showed activity in this assay
Compound: NC(=O)N(O)CCCO[C@@H]1CC[C@@H](c2ccc(F)cc2)O1 (relative stereo) [Compound 14, 2-(4-fluorophenyl)-5-(3-hydroxyureidylpropoxy) tetrahydrofuran]

activity in 5-lipoxygenase assay (5-lipoxygenase [1]): showed activity in this assay
Compound: NC(=O)N(O)CCCO[C@@H]1CC[C@H](c2ccc(F)cc2)O1 (relative stereo) [Compound 15, 2-(4-fluorophenyl)-5-(3-hydroxyureidylpropoxy) tetrahydrofuran]

The remaining lines, values behind:

Compound: 1-O-alkyl-2-acetyl-sn-glycerol-3-phosphorylcholine [PAF]
potency (active at) (platelets): 10^-12 to 10^-9 M | plasma half life [3]: 2 to 4 min

Compound: CCCCCCCCCCCCCCCCCCNC(=O)OCC(COP(=O)([O-])OCC[n+]1ccsc1)OC (racemic) [CV-3988, rac-3-(N-n-octadecyl-carbamoyloxy-ω-methoxypropyl-2-thiazolioethyl phosphate]
PAF receptor antagonism / inhibition of PAF binding (PAF receptor): PAF receptor antagonist properties

Compound: CN(O)C(=O)NCCCO[C@@H]1CC[C@@H](c2ccc(F)cc2)O1 (relative stereo) [Compound 9, 2-(4-fluorophenyl)-5-[3-(N'-methyl-N'-hydroxyureidyl)propoxy] tetrahydrofuran]
activity in 5-lipoxygenase assay (5-lipoxygenase [1]): showed activity in this assay

Compound: CN(O)C(=O)NCCCO[C@@H]1CC[C@H](c2ccc(F)cc2)O1 (relative stereo) [Compound 11, 2-(4-fluorophenyl)-5-[3-(N'-methyl-N'-hydroxyureidyl)propoxy] tetrahydrofuran]
activity in 5-lipoxygenase assay (5-lipoxygenase [1]): showed activity in this assay

Compound: COc1cc([C@H]2CC[C@H](c3cc(OC)c(OC)c(OC)c3)O2)cc(OC)c1OC (relative stereo) [L-652,731, trans-2,5-bis-(3,4,5-trimethoxyphenyl) tetrahydrofuran]
effect on 5-lipoxygenase (5-lipoxygenase [4]): no effect on the enzyme 5-lipoxygenase | inhibition of PAF-induced cutaneous vascular permeability [5]: inhibit PAF-induced rat cutaneous vascular permeability | PAF receptor antagonism / inhibition of PAF binding (PAF receptor): inhibits the binding of tritiated PAF to PAF receptor sites | relative potency, trans versus cis (PAF receptor; trans-L-652,731 vs cis-L-652,731): approximately 1000 times

Compound: COc1cc([C@H]2CC[C@H](c3cc(OC)c(OC)c(OC)c3)S2)cc(OC)c1OC (relative stereo) [L-653,150, trans-2,5-bis-(3,4,5-trimethoxyphenyl)tetrahydrothiophene]
effect on 5-lipoxygenase (5-lipoxygenase [4]): moderate inhibitor of 5-lipoxygenase | PAF receptor antagonism / inhibition of PAF binding (PAF receptor): potent PAF antagonist

Compound: CCCOc1c(OC)cc([C@@H]2CC[C@@H](c3cc(OC)c(OC)c(OC)c3)O2)cc1S(C)(=O)=O (relative stereo) [L-659,989, trans-2-(3-methoxy-4-propoxyphenyl-5-methylsulfonyl)-5-(3,4,5-trimethoxyphenyl)tetrahydrofuran]
PAF receptor antagonism / inhibition of PAF binding (PAF receptor): orally active, potent, competitive PAF receptor antagonist | equilibrium inhibition constant relative to trans-L-652,731 (PAF receptor; vs trans-L-652,731): 10 times

Compound: C=CCC1=C[C@@]2(OC)C(=CC1=O)O[C@H](c1ccc(OC)c(OC)c1)[C@H]2C [kadsurenone]
PAF receptor antagonism / inhibition of PAF binding (PAF receptor): potent, specific and competitive inhibitor of PAF activity at the receptor level
